Source: the NIST ThermoML archive (doi:10.1016/j.jct.2006.07.004)
Numbers after ± are expanded uncertainties.

Assay: xn = mol fraction of the nth substance listed
Details: 101 kPa, Liquid; for viscosity: Capillary tube (Ostwald / Ubbelohde) method; for mass density: Vibrating tube method

ClC(Cl)Cl [trichloromethane] + CC(=O)CC(C)C
Details | mass density, 283.15 K [kg/m3] | mass density, 293.15 K [kg/m3] | mass density, 303.15 K [kg/m3] | mass density, 313.15 K [kg/m3] | viscosity, 283.15 K [mPa·s] | viscosity, 293.15 K [mPa·s] | viscosity, 303.15 K [mPa·s] | viscosity, 313.15 K [mPa·s]
x1 = 0.0847 | 849 ± 1 | 839.4 ± 1 | 829.9 ± 1 | 820 ± 1 | 0.685 ± 0.006 | 0.598 ± 0.005 | 0.531 ± 0.005 | 0.472 ± 0.004
x1 = 0.1841 | 898.2 ± 1.1 | 888.1 ± 1.1 | 878 ± 1 | 867.5 ± 1 | 0.719 ± 0.006 | 0.63 ± 0.005 | 0.558 ± 0.005 | 0.493 ± 0.005
x1 = 0.276 | 947.2 ± 1.1 | 936.6 ± 1.1 | 925.8 ± 1.1 | 914.9 ± 1.1 | 0.755 ± 0.006 | 0.659 ± 0.006 | 0.577 ± 0.005 | 0.513 ± 0.005
x1 = 0.3529 | 991.1 ± 1.2 | 980.1 ± 1.2 | 968.7 ± 1.2 | 957.1 ± 1.2 | 0.78 ± 0.006 | 0.678 ± 0.006 | 0.596 ± 0.005 | 0.526 ± 0.005
x1 = 0.4467 | 1048.8 ± 1.3 | 1037 ± 1.3 | 1025 ± 1.3 | 1012.6 ± 1.2 | 0.808 ± 0.007 | 0.696 ± 0.006 | 0.616 ± 0.005 | 0.542 ± 0.005
x1 = 0.506 | 1087.7 ± 1.4 | 1075.3 ± 1.4 | 1062.8 ± 1.4 | 1050 ± 1.4 | 0.812 ± 0.007 | 0.703 ± 0.006 | 0.62 ± 0.005 | 0.551 ± 0.005
x1 = 0.6079 | 1159.3 ± 1.5 | 1146 ± 1.5 | 1132.5 ± 1.5 | 1118.7 ± 1.4 | 0.814 ± 0.007 | 0.704 ± 0.006 | 0.623 ± 0.005 | 0.557 ± 0.005
x1 = 0.6959 | 1226.7 ± 1.7 | 1212.4 ± 1.7 | 1197.9 ± 1.6 | 1183.2 ± 1.6 | 0.798 ± 0.007 | 0.696 ± 0.006 | 0.619 ± 0.005 | 0.554 ± 0.005
x1 = 0.8213 | 1332.6 ± 1.8 | 1316.7 ± 1.8 | 1300.6 ± 1.8 | 1284.1 ± 1.7 | 0.746 ± 0.006 | 0.664 ± 0.006 | 0.592 ± 0.005 | 0.533 ± 0.005
x1 = 0.9067 | 1412.3 ± 2 | 1395 ± 2 | 1377.7 ± 2 | 1359.8 ± 1.9 | 0.689 ± 0.006 | 0.629 ± 0.005 | 0.56 ± 0.005 | 0.503 ± 0.005
x1 = 1 | 1507.3 ± 0.7 | 1488.4 ± 0.7 | 1469.4 ± 0.6 | 1450 ± 0.6 | 0.629 ± 0.005 | 0.573 ± 0.005 | 0.516 ± 0.005 | 0.468 ± 0.004
